ChEMBL document CHEMBL5034019, “Discovery of the Next-Generation Pan-TRK Kinase Inhibitors for the Treatment of Cancer” (J Med Chem, 2021)
Calls of active or inactive are those of the source. No cut-off for these calls is given here.

Tests used:
[1] = Tmax in female Sprague-Dawley rat at 10 mg/kg, po measured up to 24 hrs by LC-MS analysis; format: ADME, organism-based; settings: in vivo
[2] = Volume of distribution in female Sprague-Dawley rat at 2 mg/kg, iv measured up to 24 hrs by LC-MS/MS analysis; format: ADME, organism-based; settings: in vivo
[3] = system: Platelet-derived growth factor receptor alpha (Homo sapiens), P16234 [D842V]; test: Inhibition of human PDGFRalpha D842V mutant (550 to end residues) assessed as residual activity at 0.5 uM using poly(Glu, Tyr) 4:1 as substrate measured after 40 mins in presence of [gamma33P]ATP by scintillation counting based radiometry assay relative to control
Chain of Platelet-derived growth factor receptor alpha (Homo sapiens), P16234 [D842V] (P16234 whole entry D842V): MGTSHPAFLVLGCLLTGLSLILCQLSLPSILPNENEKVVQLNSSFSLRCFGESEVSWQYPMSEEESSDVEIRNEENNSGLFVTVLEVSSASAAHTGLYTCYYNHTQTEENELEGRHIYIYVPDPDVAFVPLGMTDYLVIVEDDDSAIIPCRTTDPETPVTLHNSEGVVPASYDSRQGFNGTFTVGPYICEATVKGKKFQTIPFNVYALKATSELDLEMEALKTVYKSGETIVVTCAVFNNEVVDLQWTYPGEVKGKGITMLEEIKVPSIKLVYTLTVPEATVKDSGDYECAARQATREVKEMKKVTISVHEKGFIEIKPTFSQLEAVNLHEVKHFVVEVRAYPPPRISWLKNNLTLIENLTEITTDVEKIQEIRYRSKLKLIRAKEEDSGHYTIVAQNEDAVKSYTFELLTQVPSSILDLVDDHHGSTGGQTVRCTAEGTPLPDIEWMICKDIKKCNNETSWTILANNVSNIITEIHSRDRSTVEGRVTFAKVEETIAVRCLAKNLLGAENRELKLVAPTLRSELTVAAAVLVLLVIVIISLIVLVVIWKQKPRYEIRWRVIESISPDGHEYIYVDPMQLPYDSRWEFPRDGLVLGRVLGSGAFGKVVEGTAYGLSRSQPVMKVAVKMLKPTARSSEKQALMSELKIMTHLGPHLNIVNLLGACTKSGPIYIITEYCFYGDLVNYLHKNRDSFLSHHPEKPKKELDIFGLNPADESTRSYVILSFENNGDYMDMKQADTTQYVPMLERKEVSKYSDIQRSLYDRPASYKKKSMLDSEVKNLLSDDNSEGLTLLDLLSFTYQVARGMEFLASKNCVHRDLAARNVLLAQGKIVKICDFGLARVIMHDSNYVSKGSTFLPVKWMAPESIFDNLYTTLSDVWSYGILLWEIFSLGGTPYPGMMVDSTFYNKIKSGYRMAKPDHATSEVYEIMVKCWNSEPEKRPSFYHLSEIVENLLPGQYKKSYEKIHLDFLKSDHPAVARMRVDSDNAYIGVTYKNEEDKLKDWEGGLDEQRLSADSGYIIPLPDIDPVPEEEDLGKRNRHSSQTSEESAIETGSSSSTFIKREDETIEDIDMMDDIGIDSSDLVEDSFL

[4] = system: BaF3; test: Antitumor activity against mouse BaF3 cells transfected with ETV6-NTRK3-G623R mutant xenografted in mouse assessed as tumor growth inhibition at 5 to 20 mg/kg, po administered once daily for 21 days and measured twice weekly; settings: dose 5-20 mg/kg, time 21.0 day
[5] = target: Proto-oncogene tyrosine-protein kinase receptor Ret (Homo sapiens) (UniProt P07949); test: Inhibition of recombinant human Ret (658 to end residues) assessed as residual activity at 0.5 uM using KKKSPGEYVNIEFG as substrate incubated for 40 mins in presence of [gamma33P]ATP by scintillation counting based radiometry assay relative to control
Chain of Proto-oncogene tyrosine-protein kinase receptor Ret (Homo sapiens) (P07949 whole entry): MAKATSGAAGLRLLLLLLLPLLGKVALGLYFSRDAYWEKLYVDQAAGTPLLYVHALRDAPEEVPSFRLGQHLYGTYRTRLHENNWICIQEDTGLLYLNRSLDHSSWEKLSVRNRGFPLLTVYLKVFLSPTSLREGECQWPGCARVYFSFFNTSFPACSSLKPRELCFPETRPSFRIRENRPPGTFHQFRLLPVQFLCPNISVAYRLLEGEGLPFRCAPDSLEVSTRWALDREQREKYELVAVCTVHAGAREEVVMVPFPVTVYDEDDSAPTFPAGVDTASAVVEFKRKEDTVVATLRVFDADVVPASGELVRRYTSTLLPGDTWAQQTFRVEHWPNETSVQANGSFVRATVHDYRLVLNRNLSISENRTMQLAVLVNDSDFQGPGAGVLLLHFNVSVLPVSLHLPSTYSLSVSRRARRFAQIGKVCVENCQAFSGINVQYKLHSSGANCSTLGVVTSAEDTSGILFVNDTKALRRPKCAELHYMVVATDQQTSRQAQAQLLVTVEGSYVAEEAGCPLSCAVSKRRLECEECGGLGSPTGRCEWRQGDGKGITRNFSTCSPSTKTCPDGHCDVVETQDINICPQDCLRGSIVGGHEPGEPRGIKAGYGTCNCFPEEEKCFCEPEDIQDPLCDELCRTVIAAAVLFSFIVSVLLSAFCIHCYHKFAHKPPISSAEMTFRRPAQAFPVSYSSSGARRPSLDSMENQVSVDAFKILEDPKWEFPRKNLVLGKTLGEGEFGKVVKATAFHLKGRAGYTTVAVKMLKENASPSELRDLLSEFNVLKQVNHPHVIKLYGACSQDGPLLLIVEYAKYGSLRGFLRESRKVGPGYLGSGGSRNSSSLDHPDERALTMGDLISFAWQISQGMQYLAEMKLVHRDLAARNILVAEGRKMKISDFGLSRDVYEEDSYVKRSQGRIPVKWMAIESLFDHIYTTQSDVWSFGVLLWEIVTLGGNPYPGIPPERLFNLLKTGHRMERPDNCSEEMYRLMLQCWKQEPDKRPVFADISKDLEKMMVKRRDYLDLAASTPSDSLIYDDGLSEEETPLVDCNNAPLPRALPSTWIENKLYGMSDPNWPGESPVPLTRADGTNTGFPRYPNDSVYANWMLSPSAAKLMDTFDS

[6] = target: ALK tyrosine kinase receptor (Homo sapiens, UniProt Q9UM73)
Description: Inhibition of ALK (unknown origin) incubated for 120 mins in presence of 33P-ATP

[7] = system: Proto-oncogene tyrosine-protein kinase Src (Homo sapiens), P12931 [T341M]; test: Inhibition of recombinant full-length human Src T341M mutant assessed as residual activity at 0.5 uM using GGEEEEYFELVKKKK as substrate measured after 40 mins in presence of [gamma33P]ATP by scintillation counting method relative to control
[8] = Volume of distribution in male Sprague-Dawley rat at 2 mg/kg, iv measured up to 24 hrs by LC-MS/MS analysis; format: ADME, organism-based; settings: in vivo
[9] = Cmax in female Sprague-Dawley rat at 10 mg/kg, po measured up to 24 hrs by LC-MS/MS analysis; format: ADME, organism-based; set-up: route oral, dose 10 mg/kg, time <=24; settings: in vivo
[10] = target: Proto-oncogene tyrosine-protein kinase ROS (Homo sapiens, UniProt P08922); test: Inhibition of recombinant human Ros1 (1883 to end residues) assessed as residual activity at 0.5 uM using KKKSPGEYVNIEFG as substrate measured after 40 mins in presence of [gamma33P]ATP by scintillation counting method relative to control
Chain of Proto-oncogene tyrosine-protein kinase ROS (P08922 whole entry): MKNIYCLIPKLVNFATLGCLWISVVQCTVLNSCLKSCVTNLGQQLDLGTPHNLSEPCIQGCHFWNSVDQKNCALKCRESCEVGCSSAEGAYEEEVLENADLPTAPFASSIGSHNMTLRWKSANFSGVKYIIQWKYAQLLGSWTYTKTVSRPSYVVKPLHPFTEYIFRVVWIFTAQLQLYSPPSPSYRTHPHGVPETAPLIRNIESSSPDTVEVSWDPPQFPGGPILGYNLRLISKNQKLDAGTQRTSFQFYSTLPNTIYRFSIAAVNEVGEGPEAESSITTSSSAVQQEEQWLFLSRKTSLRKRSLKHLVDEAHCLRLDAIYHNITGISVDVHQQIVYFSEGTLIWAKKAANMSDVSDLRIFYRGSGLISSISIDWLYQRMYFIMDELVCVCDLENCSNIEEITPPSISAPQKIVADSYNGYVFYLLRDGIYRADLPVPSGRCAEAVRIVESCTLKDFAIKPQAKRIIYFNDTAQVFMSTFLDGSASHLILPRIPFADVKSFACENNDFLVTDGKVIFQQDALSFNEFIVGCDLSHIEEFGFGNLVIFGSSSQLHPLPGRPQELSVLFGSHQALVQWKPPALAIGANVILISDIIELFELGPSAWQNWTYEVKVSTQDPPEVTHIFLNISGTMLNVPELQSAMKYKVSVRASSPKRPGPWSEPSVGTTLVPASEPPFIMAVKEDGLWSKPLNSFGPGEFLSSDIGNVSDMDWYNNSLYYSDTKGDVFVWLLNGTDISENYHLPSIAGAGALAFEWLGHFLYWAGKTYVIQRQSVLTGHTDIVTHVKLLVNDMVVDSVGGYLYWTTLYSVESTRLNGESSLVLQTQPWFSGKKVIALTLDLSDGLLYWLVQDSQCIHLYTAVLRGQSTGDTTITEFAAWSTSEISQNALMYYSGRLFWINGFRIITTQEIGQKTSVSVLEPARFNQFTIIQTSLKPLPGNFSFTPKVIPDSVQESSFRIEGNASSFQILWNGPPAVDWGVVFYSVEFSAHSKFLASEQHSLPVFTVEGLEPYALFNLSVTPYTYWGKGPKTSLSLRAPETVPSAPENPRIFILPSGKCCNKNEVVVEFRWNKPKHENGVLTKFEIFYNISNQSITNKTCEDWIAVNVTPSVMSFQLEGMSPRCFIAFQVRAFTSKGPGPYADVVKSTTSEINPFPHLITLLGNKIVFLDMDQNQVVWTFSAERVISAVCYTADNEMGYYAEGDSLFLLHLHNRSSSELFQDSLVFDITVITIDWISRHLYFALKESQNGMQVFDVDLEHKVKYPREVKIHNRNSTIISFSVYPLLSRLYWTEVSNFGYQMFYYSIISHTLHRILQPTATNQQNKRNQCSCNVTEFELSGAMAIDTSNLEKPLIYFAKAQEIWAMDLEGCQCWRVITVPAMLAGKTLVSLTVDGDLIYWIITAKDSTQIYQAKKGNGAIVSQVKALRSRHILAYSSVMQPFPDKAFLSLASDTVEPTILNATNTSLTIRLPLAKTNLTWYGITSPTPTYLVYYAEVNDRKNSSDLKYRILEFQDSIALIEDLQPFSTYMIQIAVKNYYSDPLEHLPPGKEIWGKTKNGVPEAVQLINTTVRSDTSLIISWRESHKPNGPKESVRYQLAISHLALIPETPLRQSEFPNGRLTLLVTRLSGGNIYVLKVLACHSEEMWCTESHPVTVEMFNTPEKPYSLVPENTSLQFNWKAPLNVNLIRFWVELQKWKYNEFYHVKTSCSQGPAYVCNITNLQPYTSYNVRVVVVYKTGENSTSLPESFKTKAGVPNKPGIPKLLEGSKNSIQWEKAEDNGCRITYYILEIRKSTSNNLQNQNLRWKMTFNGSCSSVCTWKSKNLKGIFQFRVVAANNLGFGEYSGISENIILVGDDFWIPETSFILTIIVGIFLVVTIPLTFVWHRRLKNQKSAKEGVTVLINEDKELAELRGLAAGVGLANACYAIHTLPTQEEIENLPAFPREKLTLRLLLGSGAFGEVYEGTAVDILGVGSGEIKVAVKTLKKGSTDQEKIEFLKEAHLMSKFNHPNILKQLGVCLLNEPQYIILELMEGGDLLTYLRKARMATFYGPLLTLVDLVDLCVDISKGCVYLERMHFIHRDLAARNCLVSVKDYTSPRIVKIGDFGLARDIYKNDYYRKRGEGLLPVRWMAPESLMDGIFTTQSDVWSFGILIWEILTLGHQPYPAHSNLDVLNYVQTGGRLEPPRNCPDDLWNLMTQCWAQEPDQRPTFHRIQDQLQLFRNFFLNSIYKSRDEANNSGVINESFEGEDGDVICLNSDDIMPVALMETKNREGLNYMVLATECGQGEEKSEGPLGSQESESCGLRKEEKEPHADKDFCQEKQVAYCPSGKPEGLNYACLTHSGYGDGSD

[11] = system: Proto-oncogene tyrosine-protein kinase receptor Ret (Homo sapiens), P07949 [V804L]; test: Inhibition of recombinant human Ret V804L mutant (658 to end residues) assessed as residual activity at 0.5 uM using KKKSPGEYVNIEFG as substrate incubated for 40 mins in presence of [gamma33P]ATP by scintillation counting based radiometry assay relative to control
Chain of Proto-oncogene tyrosine-protein kinase receptor Ret (Homo sapiens), P07949 [V804L] (P07949 whole entry V804L): as the sequence (P07949 whole entry) above, with V804L counted along it

[12] = AUC (0 to t) in female Sprague-Dawley rat at 2 mg/kg, iv measured up to 24 hrs by LC-MS/MS analysis; format: ADME, organism-based; set-up: route intravenous, dose 2 mg/kg, time <=24; settings: in vivo
[13] = Toxicity in mouse xenografted with mouse BaF3 cells transfected with ETV6-NTRK3-G623R mutant assessed as weight loss at 20 mg/kg, po administered once daily for 21 days and measured twice weekly; settings: in vivo, 504 h
[14] = system: Hepatocyte growth factor receptor (Homo sapiens), P08581 [D1246H]; test: Inhibition of recombinant human Met D1246H mutant (974 to end residues) assessed as residual activity at 0.5 uM using KKKGQEEEYVFIE as substrate incubated for 40 mins in presence of [gamma-33P]-ATP by scintillation counting method relative to control
[15] = Toxicity in […] xenografted with mouse BaF3 cells transfected with LMNA-NTRK1 assessed as weight loss at 20 mg/kg, po administered once daily for 21 days and measured twice weekly; format: organism-based; settings: in vivo, 504 h, time 21 day
[16] = Toxicity in mouse xenografted with mouse BaF3 cells transfected with LMNA-NTRK1-G595R mutant assessed as weight loss at 20 mg/kg, po administered once daily for 21 days and measured twice weekly; settings: in vivo, 504 h
[17] = AUC (0 to t) in Sprague-Dawley rat at 10 mg/kg, po measured up to 24 hrs by LC-MS/MS analysis; format: ADME, organism-based; set-up: route oral, dose 10 mg/kg, time <=24; settings: in vivo
[18] = Cmax in Sprague-Dawley rat at 10 mg/kg, po measured up to 24 hrs by LC-MS/MS analysis; format: ADME, organism-based; set-up: route oral, dose 10 mg/kg, time <=24; settings: in vivo
[19] = C0 in Sprague-Dawley rat at 3 mg/kg measured up to 24 hrs by LC/MS/MS analysis; format: ADME, organism-based; settings: in vivo
[20] = system: BaF3; test: Antitumor activity against mouse BaF3 cells transfected with ETV6-NTRK3-G623R mutant xenografted in mouse assessed as tumor growth inhibition at 100 mg/kg, po administered once daily for 21 days and measured twice weekly; settings: time 21.0 day
[21] = system: BaF3; test: Antitumor activity against mouse BaF3 cells transfected with ETV6-NTRK3 cells xenografted in mouse assessed as tumor growth inhibition at 100 mg/kg, po administered once daily for 21 days and measured twice weekly; settings: time 21.0 day
[22] = system: BaF3; test: Antitumor activity against mouse BaF3 cells transfected with LMNA-NTRK1-G595R mutant xenografted in mouse assessed as tumor growth inhibition at 100 mg/kg, po administered once daily for 21 days and measured twice weekly; settings: time 21.0 day
[23] = Toxicity in mouse xenografted with mouse BaF3 cells transfected with LMNA-NTRK1 assessed as weight loss at 100 mg/kg, po administered once daily for 21 days and measured twice weekly; settings: in vivo, 504 h
[24] = Toxicity in mouse xenografted with mouse BaF3 cells transfected with LMNA-NTRK1-G595R mutant assessed as weight loss at 100 mg/kg, po administered once daily for 21 days and measured twice weekly; settings: in vivo, 504 h
[25] = cells; settings: Homo sapiens, MO-91
Description: Antiproliferative activity against TrK fused human MO-91 cells

[26] = Toxicity in mouse xenografted with mouse BaF3 cells transfected with ETV6-NTRK3 assessed as weight loss at 100 mg/kg, po administered once daily for 21 days and measured twice weekly; settings: in vivo, 504 h
[27] = system: BaF3; test: Antitumor activity against mouse BaF3 cells transfected with LMNA-NTRK1 xenografted in mouse assessed as tumor growth inhibition at 100 mg/kg, po administered once daily for 21 days and measured twice weekly; settings: time 21.0 day
[28] = AUC (0 to t) in Sprague-Dawley rat at 3 mg/kg measured up to 24 hrs by LC-MS/MS analysis; format: ADME, organism-based; set-up: dose 3 mg/kg, time <=24; settings: in vivo

Structure (SMILES): O=C1NC2(CC2)COc2ncc(F)cc2[C@H]2COCCN2c2ccn3ncc1c3n2
- Tmax [1]: 40 min
- Vd [2]: 1.46 L/kg
- Activity [3]: 102%
- Activity [4]: Active
- Activity [5]: 64%
- IC50 [6]: 0.182 µM
- Activity [7]: 55%
- Vd [8]: 1.39 L/kg
- Cmax [9]: 6.63 µM
- Activity [10]: 16%
- Activity [11]: 59%
- AUC(0-t) at 24 h [12]: 10.3 µM·h
- Activity [13]: Toxic
- Activity [14]: 91%
- Activity [15]: Toxic
- Activity [16]: Toxic

Structure (SMILES): C[C@@H]1CCc2ncc(F)cc2[C@H]2CCCN2c2ccn3ncc(c3n2)C(=O)N1 [SELITRECTINIB]
- AUC(0-t) at 24 h [17]: 27.3 µM·h
- Cmax [18]: 12.7 µM
- C0 [19]: 23.779 µM
- Activity [20]: Active
- Activity [21]: Active
- Activity [22]: Active
- Activity [23]: Toxic
- Activity [24]: Toxic
- IC50 [25]: ≤ 0.005 µM
- Activity [26]: Toxic
- Activity [27]: Active
- AUC(0-t) at 24 h [28]: 11.1 µM·h
